Biological target: CDK2/Cyclin E1 (Homo sapiens (Human), UniProt P24941)
Test: CDK2/Cyclin E1 HTRF enzyme activity assay
Format: biochemical
Settings: 1 mM ATP
Method: Assays are conducted in white 384-well polystyrene plates in a final reaction volume of 8 μL. […] HTRF signals are read after 1 hour at room temperature on a PHERAstar FS plate reader (BMG Labtech). Data is analyzed with IDBS XLFit and GraphPad Prism 5.0 software using a three or four parameter dose response curve to determine IC50 for each compound.

SMILES	IC50 [nM]
Cn1cnc(S(=O)(=O)N2CCC(Nc3ncc(C(F)(F)F)c(-c4cnn(CC(F)F)c4)n3)CC2)c1 [Example 31, 4-(1-(2,2-Difluoroethyl)-1H-pyrazol-4-yl)-N-(1-((1-methyl-1H-imidazol-4-yl)sulfonyl)piperidin-4-yl)-5-(trifluoromethyl)pyrimidin-2-amine]	< 50
Cn1cnc(S(=O)(=O)N2CCC(Nc3ncc(C(F)(F)F)c(-c4cnn(CC5CC5)c4)n3)CC2)c1 [Example 32, 4-(1-(Cyclopropylmethyl)-1H-pyrazol-4-yl)-N-(1-((1-methyl-1H-imidazol-4-yl)sulfonyl)piperidin-4-yl)-5-(trifluoromethyl)pyrimidin-2-amine]	< 50
Cn1cnc(S(=O)(=O)N2CCC(Nc3ncc(C(F)(F)F)c(-c4cnn(C[C@H]5CCOC5)c4)n3)CC2)c1 [Example 33, (R)—N-(1-((1-Methyl-1H-imidazol-4-yl)sulfonyl)piperidin-4-yl)-4-(1-((tetrahydrofuran-3-yl)methyl)-1H-pyrazol-4-yl)-5-(trifluoromethyl)pyrimidin-2-amine]	< 50
CS(=O)(=O)N1CCC(Nc2ncc(C(F)(F)F)c(-c3cnn([C@H]4CC[C@H](C#N)CC4)c3)n2)CC1 [Example 34, trans-4-(4-(2-((1-(Methylsulfonyl)piperidin-4-yl)amino)-5-(trifluoromethyl)pyrimidin-4-yl)-1H-pyrazol-1-yl)cyclohexane-1-carbonitrile]	< 50
Cc1c(-n2cc(-c3nc(NC4CCN(S(=O)(=O)c5cn(C)cn5)CC4)ncc3C(F)(F)F)cn2)ccnc1N [Example 35, 4-(1-(2-Amino-3-methylpyridin-4-yl)-1H-pyrazol-4-yl)-N-(1-((1-methyl-1H-imidazol-4-yl)sulfonyl)piperidin-4-yl)-5-(trifluoromethyl)pyrimidin-2-amine]	< 50
Cn1cnc(S(=O)(=O)N2CCC(Nc3ncc(C(F)(F)F)c(-c4cnn(-c5ccnc(N)c5Cl)c4)n3)CC2)c1 [Example 36, 4-(1-(2-Amino-3-chloropyridin-4-yl)-1H-pyrazol-4-yl)-N-(1-((1-methyl-1H-imidazol-4-yl)sulfonyl)piperidin-4-yl)-5-(trifluoromethyl)pyrimidin-2-amine]	< 50
CS(=O)(=O)N1CCC(Nc2ncc(C(F)(F)F)c(-c3cnn(-c4cc(N)ncc4C(F)(F)F)c3)n2)CC1 [Example 37, 4-(1-(2-Amino-5-(trifluoromethyl)pyridin-4-yl)-1H-pyrazol-4-yl)-N-(1-(methylsulfonyl)piperidin-4-yl)-5-(trifluoromethyl)pyrimidin-2-amine]	< 50
Cn1cnc(S(=O)(=O)N2CCC(Nc3ncc(C#N)c(-c4cnn(CC(F)(F)F)c4)n3)CC2)c1 [Example 38, 2-((1-((1-Methyl-1H-imidazol-4-yl)sulfonyl)piperidin-4-yl)amino)-4-(1-(2,2,2-trifluoroethyl)-1H-pyrazol-4-yl)pyrimidine-5-carbonitrile]	< 50
N#Cc1cnc(NC2CCN(S(=O)(=O)c3ccccn3)CC2)nc1-c1cnn(CC(F)(F)F)c1 [Example 39, 2-((1-(Pyridin-2-ylsulfonyl)piperidin-4-yl)amino)-4-(1-(2,2,2-trifluoroethyl)-1H-pyrazol-4-yl)pyrimidine-5-carbonitrile]	< 50
Cn1cnc(S(=O)(=O)N2CCC(Nc3ncc(Cl)c(-c4cnn(CC(F)(F)F)c4)n3)CC2)c1 [Example 40, 5-Chloro-N-(1-((1-methyl-1H-imidazol-4-yl)sulfonyl)piperidin-4-yl)-4-(1-(2,2,2-trifluoroethyl)-1H-pyrazol-4-yl)pyrimidin-2-amine]	< 50
CO[C@H]1CC[C@H](n2cc(-c3nc(N[C@H]4CCN(S(=O)(=O)c5cn(C)cn5)C[C@H]4F)ncc3C(F)(F)F)cn2)CC1 [Example 43, N-((3R,4S)-3-Fluoro-1-((1-methyl-1H-imidazol-4-yl)sulfonyl)piperidin-4-yl)-4-(1-((trans)-4-methoxycyclohexyl)-1H-pyrazol-4-yl)-5-(trifluoromethyl)pyrimidin-2-amine]	< 50
CC(C)S(=O)(=O)N1CCC(Nc2ncc(C(F)(F)F)c(-c3cnn([C@H]4C[C@@](C)(N)C4)c3)n2)CC1 [Example 45, 4-(1-((1s,3s)-3-Amino-3-methylcyclobutyl)-1H-pyrazol-4-yl)-N-(1-(isopropylsulfonyl)piperidin-4-yl)-5-(trifluoromethyl)pyrimidin-2-amine]	< 50
C[C@]1(N)C[C@@H](n2cc(-c3nc(NC4CCN(S(=O)(=O)C5CCC5)CC4)ncc3C(F)(F)F)cn2)C1 [Example 46, 4-(1-((1s,3s)-3-Amino-3-methylcyclobutyl)-1H-pyrazol-4-yl)-N-(1-(cyclobutylsulfonyl)piperidin-4-yl)-5-(trifluoromethyl)pyrimidin-2-amine]	< 50
C[C@@H]1CN(S(=O)(=O)C2CC2)CC[C@@H]1Nc1ncc(C(F)(F)F)c(-c2cnn([C@H]3C[C@@](C)(N)C3)c2)n1 [Example 47, 4-(1-((1s,3r)-3-Amino-3-methylcyclobutyl)-1H-pyrazol-4-yl)-N-((3R,4S)-1-(cyclopropylsulfonyl)-3-methylpiperidin-4-yl)-5-(trifluoromethyl)pyrimidin-2-amine]	< 50
C[C@]1(N)C[C@@H](n2cc(-c3nc(N[C@H]4CCN(S(=O)(=O)C5CCC5)C[C@H]4F)ncc3C(F)(F)F)cn2)C1 [Example 48, 4-(1-((1s,3r)-3-Amino-3-methylcyclobutyl)-1H-pyrazol-4-yl)-N-((3R,4S)-1-(cyclobutylsulfonyl)-3-fluoropiperidin-4-yl)-5-(trifluoromethyl)pyrimidin-2-amine]	< 50
CN[C@H]1C[C@@H](n2cc(-c3nc(NC4CCN(S(=O)(=O)c5ccccn5)CC4)ncc3C(F)(F)F)cn2)C1 [Example 49, 4-(1-((1s,3s)-3-(Methylamino)cyclobutyl)-1H-pyrazol-4-yl)-N-(1-(pyridin-2-ylsulfonyl)piperidin-4-yl)-5-(trifluoromethyl)pyrimidin-2-amine]	< 50
CN[C@H]1C[C@H](n2cc(-c3nc(NC4CCN(S(=O)(=O)c5ccccn5)CC4)ncc3C(F)(F)F)cn2)C1 [Example 50, 4-(1-((1r,3r)-3-(Methylamino)cyclobutyl)-1H-pyrazol-4-yl)-N-(1-(pyridin-2-ylsulfonyl)piperidin-4-yl)-5-(trifluoromethyl)pyrimidin-2-amine]	< 50
CC(C)(O)Cn1cc(-c2nc(NC3CCN(S(C)(=O)=O)CC3)ncc2C(F)(F)F)cn1 [Example 52, 2-Methyl-1-(4-(2-((1-(methylsulfonyl)piperidin-4-yl)amino)-5-(trifluoromethyl)pyrimidin-4-yl)-1H-pyrazol-1-yl)propan-2-ol]	< 50
CCS(=O)(=O)N1CCC(Nc2ncc(C(F)(F)F)c(-c3cnn(CC(C)(C)O)c3)n2)CC1 [Example 53, 1-(4-(2-((1-(Ethylsulfonyl)piperidin-4-yl)amino)-5-(trifluoromethyl)pyrimidin-4-yl)-1H-pyrazol-1-yl)-2-methylpropan-2-ol]	< 50
CC(C)(O)Cn1cc(-c2nc(NC3CCN(S(=O)(=O)c4ccccn4)CC3)ncc2C#N)cn1 [Example 55, 4-(1-(2-Hydroxy-2-methylpropyl)-1H-pyrazol-4-yl)-2-((1-(pyridin-2-ylsulfonyl)piperidin-4-yl)amino)pyrimidine-5-carbonitrile]	< 50
